# Experimental data taken from patent US20210220408A1, “ARYL HYDROCARBON RECEPTOR ANTAGONISTS AND METHODS OF USE” (Magenta Therapeutics Inc., priority 2018, published 2021).
# pEC50, pIC50: −log10 of the molar value.
# Key:
# [1] = molecular target: T1, aryl hydrocarbon receptor (AHR) (Homo sapiens, UniProt P35869); experiment: DRE-Luciferase reporter high-throughput screen (AHR antagonist, VAF347-activated)
# T1 sequence (P35869 11-848): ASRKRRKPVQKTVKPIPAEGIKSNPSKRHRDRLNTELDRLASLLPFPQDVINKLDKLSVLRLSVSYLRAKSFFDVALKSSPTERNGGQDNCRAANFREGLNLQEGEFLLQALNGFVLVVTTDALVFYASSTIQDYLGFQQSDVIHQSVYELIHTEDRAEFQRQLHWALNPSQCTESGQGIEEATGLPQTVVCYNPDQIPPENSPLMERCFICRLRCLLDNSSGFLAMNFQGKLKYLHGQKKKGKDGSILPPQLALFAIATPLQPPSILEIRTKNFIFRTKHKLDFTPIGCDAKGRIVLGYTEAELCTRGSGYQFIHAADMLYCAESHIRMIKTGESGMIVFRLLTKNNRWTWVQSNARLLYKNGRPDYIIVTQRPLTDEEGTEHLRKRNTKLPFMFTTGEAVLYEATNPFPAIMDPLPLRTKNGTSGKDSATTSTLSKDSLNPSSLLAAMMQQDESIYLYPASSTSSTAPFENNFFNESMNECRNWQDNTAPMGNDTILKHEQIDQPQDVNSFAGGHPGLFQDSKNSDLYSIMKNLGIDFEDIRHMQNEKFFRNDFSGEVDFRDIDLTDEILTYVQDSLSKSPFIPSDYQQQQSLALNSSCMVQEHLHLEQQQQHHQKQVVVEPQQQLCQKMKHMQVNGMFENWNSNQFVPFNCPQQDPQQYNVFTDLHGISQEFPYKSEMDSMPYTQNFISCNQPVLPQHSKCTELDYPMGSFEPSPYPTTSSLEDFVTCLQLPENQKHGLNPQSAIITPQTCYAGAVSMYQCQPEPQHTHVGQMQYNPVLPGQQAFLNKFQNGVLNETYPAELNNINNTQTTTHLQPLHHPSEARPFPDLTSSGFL
# [2] = tested on: mobilized peripheral blood CD34+ cells; experiment: CD34+ expansion assay; type: cell-based; conditions: Homo sapiens; read-out: CD34 Frequency EC50
# Protocol: Approximately 3,000 mobilized peripheral blood CD34+ cells were plated per well in 384-well plate at a final volume of 45 μL in HSC growth media (SFEM supplemented with Pen/Strep, 50 ng/mL FLT3L, TPO, SCF and IL-6). Serial dilutions were made in HSC growth media with a top final concentration of 10 μM. 5 μL 10× stock was added to each well. The plate was gently tapped on all sides and incubated for 7 days at 37° C./5% CO2. On day 7, the media was aspirated on a Biotek plate washer and 30 μL staining solution was added to the cells with antibodies against CD34-PE, CD90-APC, CD45RA-PE-CF594 in PBS. Cells were washed once in PBS and resuspended in 80 μL for final volume. 40 μL was acquired by flow cytometry (BD Celesta).
Compound,pIC50 [1],pEC50 [2]
CCCSc1nc(N)c(C(=O)Nc2ccccc2)cc1C#N [compound 16],6.30 to 6.70,> 6.30
COc1ccc(-c2nnc(Nc3ccccc3O)c3ccccc23)cc1 [compound 130],6.00 to 6.30,5.30 to 6.00
Nc1c(-c2nc(-c3ccccc3)cs2)nnn1-c1ccc(F)cc1 [compound 53],6.00 to 6.30,6.00 to 6.30
N#Cc1cccc(C#N)c1N1CCN(C(=O)Nc2ccccc2)CC1 [compound 79],6.00 to 6.30,≤ 5.30
Cc1ccc2nc3sc(C(=O)Nc4cccc(C(F)(F)F)c4)cc3c(=O)n2c1 [compound 15],> 6.70,> 6.30
Cn1cnnc1Sc1ccc(NC(=O)c2cc(Br)ccc2F)cc1 [compound 7],6.00 to 6.30,5.30 to 6.00
Cc1ccc(Nc2cc(-c3ccccc3)nc3ncnn23)cc1 [compound 107],6.00 to 6.30,5.30 to 6.00
N#Cc1cn(-c2ccc(Cl)cc2)nc1C(=O)c1cccs1 [compound 91],6.30 to 6.70,> 6.30
Cc1ccc2nc(-c3ccc(-c4ccccn4)s3)cn2c1 [compound 101],6.00 to 6.30,6.00 to 6.30
CCC(=O)N1CCc2cc(C(=O)Nc3ccn(CCc4ccccn4)n3)ccc21 [compound 47],6.00 to 6.30,5.30 to 6.00
COc1ccccc1-c1nnc(SCc2cccc3ccccc23)n1C [compound 96],6.00 to 6.30,5.30 to 6.00
COc1cc(C(F)(F)F)ccc1C(=O)Nc1cccc(N2CCOCC2)c1 [compound 1],6.30 to 6.70,6.00 to 6.30
N#Cc1nc(NCC(O)c2ccc(OC(F)F)cc2)ccc1Cl (stereo not drawn) [compound 88],6.30 to 6.70,5.30 to 6.00
CCOC(=O)N1CCN(c2nc(CC)nc3sc(C)cc23)CC1 [compound 75],6.30 to 6.70,5.30 to 6.00
CCN(CC)C(=O)c1nc2c(s1)CCN(c1ncccn1)CC2 [compound 133],6.00 to 6.30,5.30 to 6.00
Cc1nc(-c2ccccc2)sc1C(=O)N/N=C/c1cc2ccccc2o1 [compound 115],6.30 to 6.70,5.30 to 6.00
COc1ccc(C(=O)Nc2ccc3c(c2)oc2ccccc23)cc1[N+](=O)[O-] [compound 14],> 6.70,> 6.30
CCC(=O)Nc1ccc(N2Cc3ccccc3C2=O)cc1 [compound 135],6.00 to 6.30,5.30 to 6.00

Compound,pIC50 [1],pEC50 [2]
COc1ccc(-c2ccc3c(N)c(C(=O)NC4CC4)sc3n2)cc1 [compound 136],6.00 to 6.30,≤ 5.30
CC(C)c1cc(-c2nnc3sc(-c4ccccn4)nn23)[nH]n1 [compound 72],6.30 to 6.70,6.00 to 6.30
Nc1cc(-c2ccc3c(c2)CCCC3)nn1-c1ccccc1 [compound 92],6.00 to 6.30,≤ 5.30
O=[N+]([O-])c1ccc(/C=N/Nc2nccc(-c3cccnc3)n2)cc1 [compound 113],6.30 to 6.70,5.30 to 6.00
Cc1ccc(-c2nc(-c3cc(C)on3)no2)cc1 [compound 122],6.00 to 6.30,5.30 to 6.00
O=C(Nc1ccc2ccccc2n1)c1ccccc1Cl [compound 12],6.00 to 6.30,6.00 to 6.30
Cc1nn2c(C)c(C(=O)OC(C)C)nnc2c1-c1ccccc1 [compound 106],6.00 to 6.30,6.00 to 6.30
c1ccc(-c2nnc(-c3csc(-c4cccnc4)n3)o2)cc1 [compound 57],6.30 to 6.70,6.00 to 6.30
Cc1noc(C)c1C(=O)Nc1ccc(-c2nc3ccccc3o2)cc1 [compound 25],6.30 to 6.70,6.00 to 6.30
Cc1ccc(Nc2ccc(NC(=O)c3ccc(-c4ccccc4)cc3)cc2)nn1 [compound 5],6.00 to 6.30,5.30 to 6.00
FC(F)(F)c1nc(N2CCN(c3ncccn3)CC2)c2ccccc2n1 [compound 76],6.30 to 6.70,≤ 5.30
N#Cc1ccc(C(=O)Nc2cc(C(F)(F)F)ccc2Cl)c(F)c1 [compound 2],6.30 to 6.70,6.00 to 6.30
O=C(N/N=C\c1ccccc1C(F)(F)F)c1n[nH]c2c1CCc1ccccc1-2 [compound 99],6.00 to 6.30,5.30 to 6.00
O=C(Nc1ccccc1Cl)c1cnc(-c2noc3ccccc23)s1 [compound 23],6.30 to 6.70,6.00 to 6.30
Cc1ccc2nc(-c3ccc(Cl)cc3)cc(C(N)=O)c2c1 [compound 116],> 6.70,> 6.30
Fc1ccc(-c2cc(-c3ccccc3)nc(-n3cccn3)n2)cc1 [compound 82],> 6.70,6.00 to 6.30
Cc1ccccc1CS(=O)(=O)N1CCc2ccccc2C1 [compound 131],6.00 to 6.30,5.30 to 6.00
Cc1noc(C)c1C(=O)Nc1ccc(-c2ccccc2)cc1 [13B],6.00 to 6.30,–

# Second part, the molecule after the results:
pIC50 [1],pEC50 [2],Compound
6.30 to 6.70,5.30 to 6.00,O=c1[nH]c(NC2CCCC2)nc2nccc(-c3cccs3)c12 [compound 129]
6.00 to 6.30,> 6.30,CSc1ccccc1C(=O)Nc1ccc2[nH]c(-c3ccc(F)cc3)nc2c1 [compound 13]
6.00 to 6.30,≤ 5.30,Cc1ccc2nc(-c3ccc(NC(=O)COC(=O)c4ccc(O)cc4O)cc3)sc2c1 [compound 138]
6.00 to 6.30,5.30 to 6.00,CC(C)OCCCn1c(=O)c(-c2cccs2)nc2cc(S(=O)(=O)N3CCOCC3)ccc21 [compound 128]
> 6.70,6.00 to 6.30,Cc1noc(C)c1C(=O)Nc1ccc2oc(-c3cc(F)ccc3Br)nc2c1 [compound 45]
6.00 to 6.30,5.30 to 6.00,COc1ccc(NC(=O)CNc2ccc(C(F)(F)F)cc2)cc1Cl [compound 127]
6.00 to 6.30,6.00 to 6.30,COc1ccc(NC(=O)c2nnn(-c3cc(C)cc(C)c3)c2C)c(OC)c1 [compound 22]
6.00 to 6.30,5.30 to 6.00,Cc1ccc(Cl)cc1-n1ccc2nc(N3CCCCC3)ncc2c1=O [compound 134]
6.00 to 6.30,5.30 to 6.00,Clc1ccc(COc2ccc(-c3ccnc4ccnn34)cc2)cc1 [compound 104]
6.30 to 6.70,6.00 to 6.30,CSc1ccc(N2C(=O)C3Cc4ccccc4CN3C2=O)cc1 (stereo not drawn) [compound 120]
6.00 to 6.30,5.30 to 6.00,FC(F)(F)Oc1ccc(-c2nnc(-c3cccnc3)o2)cc1 [compound 123]
6.30 to 6.70,> 6.30,CCCc1cc(C(N)=O)c(NC(=O)COc2ccccc2C)s1 [compound 119]
6.00 to 6.30,5.30 to 6.00,FC(F)(F)c1ccnc(N/N=C/c2ccc(Cl)cc2Cl)n1 [compound 114]
6.00 to 6.30,5.30 to 6.00,Cc1ccc(N/N=C/c2ccc(-n3ccnc3)cc2)cc1Cl [compound 98]
6.00 to 6.30,6.00 to 6.30,Cc1cccc(NC(=O)c2cc(-c3ccc(C)cc3O)n[nH]2)c1 [compound 20]
6.00 to 6.30,5.30 to 6.00,Cn1nc(C(C)(C)C)cc1-c1nn2c(-c3cccs3)nnc2s1 [compound 73]
6.00 to 6.30,5.30 to 6.00,Cc1ccc(-c2csc(-c3ccncc3)n2)c(C)c1 [compound 52]
